Data reported in article PMC9841288 (Journal of Translational Autoimmunity, 2022).

Tests used:
CLK2 = CLK2 (Homo sapiens, UniProt P49760); test: KINOMEscan competition binding, single dose […]
DYRK1B = DYRK1B (Homo sapiens, UniProt Q9Y463); test: KINOMEscan competition binding, single dose […]
MYLK = MYLK (Homo sapiens, UniProt Q15746); test: KINOMEscan competition binding, single dose […]
ALK(C1156Y) = ALK(C1156Y) (Homo sapiens, UniProt Q9UM73, C1156Y); test: KINOMEscan competition binding, single dose […]
Sequence of ALK(C1156Y) (Q9UM73 1093-1411 C1156Y limits assumed): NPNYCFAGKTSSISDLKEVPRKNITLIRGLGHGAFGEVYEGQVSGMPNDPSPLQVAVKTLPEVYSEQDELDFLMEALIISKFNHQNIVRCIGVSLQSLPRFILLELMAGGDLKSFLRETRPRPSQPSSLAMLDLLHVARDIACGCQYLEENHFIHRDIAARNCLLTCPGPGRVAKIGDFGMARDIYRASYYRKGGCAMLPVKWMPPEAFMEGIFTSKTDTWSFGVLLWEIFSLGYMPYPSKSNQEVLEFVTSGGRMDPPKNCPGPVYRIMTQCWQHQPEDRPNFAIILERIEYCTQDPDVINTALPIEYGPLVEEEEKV

CLK1 = CLK1 (Homo sapiens, UniProt P49759); test: KINOMEscan competition binding, single dose […]
Sequence of CLK1 (P49759 whole entry): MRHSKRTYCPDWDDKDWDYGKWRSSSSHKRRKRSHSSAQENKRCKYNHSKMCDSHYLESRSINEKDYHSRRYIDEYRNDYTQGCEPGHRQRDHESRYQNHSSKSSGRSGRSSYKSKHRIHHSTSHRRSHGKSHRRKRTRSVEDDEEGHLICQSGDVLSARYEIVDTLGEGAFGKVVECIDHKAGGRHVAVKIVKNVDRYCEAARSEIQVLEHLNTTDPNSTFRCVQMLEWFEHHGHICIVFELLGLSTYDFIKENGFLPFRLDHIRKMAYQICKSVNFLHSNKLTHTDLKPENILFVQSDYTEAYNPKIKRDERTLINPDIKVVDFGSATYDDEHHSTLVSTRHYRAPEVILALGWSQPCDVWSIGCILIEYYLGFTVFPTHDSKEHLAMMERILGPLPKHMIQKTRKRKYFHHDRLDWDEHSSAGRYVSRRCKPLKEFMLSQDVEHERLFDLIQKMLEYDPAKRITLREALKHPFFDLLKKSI

DYRK1A = DYRK1A (Homo sapiens, UniProt Q13627); test: radiometric HotSpot kinase assay, […] ATP; format: biochemical
ALK = ALK (Homo sapiens, UniProt Q9UM73); test: KINOMEscan competition binding, single dose […]
Sequence of ALK (Q9UM73 19-1620): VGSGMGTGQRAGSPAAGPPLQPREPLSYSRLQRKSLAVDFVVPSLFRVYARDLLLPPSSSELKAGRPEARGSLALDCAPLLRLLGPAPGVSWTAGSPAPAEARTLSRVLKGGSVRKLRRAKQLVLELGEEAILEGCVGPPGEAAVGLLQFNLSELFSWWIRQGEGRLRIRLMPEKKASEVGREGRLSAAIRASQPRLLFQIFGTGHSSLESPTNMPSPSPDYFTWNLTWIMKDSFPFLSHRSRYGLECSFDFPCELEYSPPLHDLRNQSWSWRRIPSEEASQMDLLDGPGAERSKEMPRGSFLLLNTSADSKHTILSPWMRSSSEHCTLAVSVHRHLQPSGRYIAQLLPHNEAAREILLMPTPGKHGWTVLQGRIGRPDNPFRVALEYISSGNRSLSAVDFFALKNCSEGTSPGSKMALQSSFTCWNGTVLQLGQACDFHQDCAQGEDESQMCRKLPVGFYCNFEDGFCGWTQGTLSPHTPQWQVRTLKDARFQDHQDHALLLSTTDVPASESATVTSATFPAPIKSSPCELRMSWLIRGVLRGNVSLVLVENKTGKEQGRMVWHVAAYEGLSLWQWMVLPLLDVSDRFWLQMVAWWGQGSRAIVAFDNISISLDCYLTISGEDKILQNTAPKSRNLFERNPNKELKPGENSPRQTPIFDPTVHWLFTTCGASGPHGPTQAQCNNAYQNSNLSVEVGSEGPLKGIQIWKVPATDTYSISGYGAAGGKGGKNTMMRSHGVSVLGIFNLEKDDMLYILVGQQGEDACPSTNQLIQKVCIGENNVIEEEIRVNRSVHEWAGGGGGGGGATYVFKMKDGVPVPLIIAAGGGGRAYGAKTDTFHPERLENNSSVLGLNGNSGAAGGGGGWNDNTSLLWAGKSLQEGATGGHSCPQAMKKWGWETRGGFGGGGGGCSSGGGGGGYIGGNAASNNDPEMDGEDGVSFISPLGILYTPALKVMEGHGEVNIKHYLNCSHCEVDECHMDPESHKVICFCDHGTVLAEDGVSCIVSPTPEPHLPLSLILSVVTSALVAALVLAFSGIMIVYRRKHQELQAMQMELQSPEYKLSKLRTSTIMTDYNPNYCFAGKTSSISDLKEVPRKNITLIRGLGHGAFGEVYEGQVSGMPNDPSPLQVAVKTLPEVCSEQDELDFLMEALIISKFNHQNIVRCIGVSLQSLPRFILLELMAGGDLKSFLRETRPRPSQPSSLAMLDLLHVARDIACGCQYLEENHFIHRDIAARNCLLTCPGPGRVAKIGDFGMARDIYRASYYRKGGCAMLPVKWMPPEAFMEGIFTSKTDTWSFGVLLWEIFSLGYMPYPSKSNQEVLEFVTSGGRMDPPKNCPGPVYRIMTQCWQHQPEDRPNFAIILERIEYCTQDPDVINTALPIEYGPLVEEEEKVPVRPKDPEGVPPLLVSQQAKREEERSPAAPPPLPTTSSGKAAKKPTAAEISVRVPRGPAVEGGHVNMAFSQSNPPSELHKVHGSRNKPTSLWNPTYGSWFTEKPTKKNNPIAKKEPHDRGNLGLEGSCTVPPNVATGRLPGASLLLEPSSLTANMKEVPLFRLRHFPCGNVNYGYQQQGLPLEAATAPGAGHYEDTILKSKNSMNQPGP

Sequence of CLK2 (P49760 whole entry): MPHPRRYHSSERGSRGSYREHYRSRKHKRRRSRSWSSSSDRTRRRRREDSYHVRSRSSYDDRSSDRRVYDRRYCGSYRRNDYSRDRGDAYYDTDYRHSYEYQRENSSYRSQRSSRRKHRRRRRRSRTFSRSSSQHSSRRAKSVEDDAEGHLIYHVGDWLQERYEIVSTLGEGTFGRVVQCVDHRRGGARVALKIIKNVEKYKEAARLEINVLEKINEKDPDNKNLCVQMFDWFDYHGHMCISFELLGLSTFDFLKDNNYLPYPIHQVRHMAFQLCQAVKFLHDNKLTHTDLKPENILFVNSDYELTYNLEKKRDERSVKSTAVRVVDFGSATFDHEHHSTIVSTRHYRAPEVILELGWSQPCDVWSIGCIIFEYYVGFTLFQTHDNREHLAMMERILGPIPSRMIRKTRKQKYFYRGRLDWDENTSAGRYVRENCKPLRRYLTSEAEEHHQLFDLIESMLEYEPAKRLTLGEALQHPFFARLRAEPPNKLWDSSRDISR
Sequence of DYRK1B (Q9Y463 whole entry): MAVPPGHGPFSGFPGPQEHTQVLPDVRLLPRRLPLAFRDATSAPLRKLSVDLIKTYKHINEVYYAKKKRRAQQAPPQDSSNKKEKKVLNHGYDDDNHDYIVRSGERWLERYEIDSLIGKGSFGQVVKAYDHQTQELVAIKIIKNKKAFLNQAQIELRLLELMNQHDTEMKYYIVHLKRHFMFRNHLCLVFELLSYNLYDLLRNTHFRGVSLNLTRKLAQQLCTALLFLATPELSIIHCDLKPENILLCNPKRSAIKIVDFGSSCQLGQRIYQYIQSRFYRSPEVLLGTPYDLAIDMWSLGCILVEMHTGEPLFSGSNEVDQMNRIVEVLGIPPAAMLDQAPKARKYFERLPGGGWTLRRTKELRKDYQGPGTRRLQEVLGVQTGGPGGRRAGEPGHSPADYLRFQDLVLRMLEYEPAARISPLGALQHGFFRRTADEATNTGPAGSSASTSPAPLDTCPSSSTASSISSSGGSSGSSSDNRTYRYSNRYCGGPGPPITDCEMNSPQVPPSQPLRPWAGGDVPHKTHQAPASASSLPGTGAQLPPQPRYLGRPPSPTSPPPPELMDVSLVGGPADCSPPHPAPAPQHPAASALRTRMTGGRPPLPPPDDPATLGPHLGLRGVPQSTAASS

% of control unbound at 1 μM (CLK2): 3.3
% of control unbound at 1 μM (DYRK1B): 1.8
% of control unbound at 1 μM (MYLK): 7.8
% of control unbound at 1 μM (ALK(C1156Y)): 2.5
% of control unbound at 1 μM (CLK1): 1.1
IC50 (DYRK1A): 2.9 nM
% of control unbound at 1 μM (ALK): 3.5
Substance: FRTX-02
